Measurements as given in patent US7223759B2, “Antibacterial 3,5-diaminopiperidine-substituted aromatic and heteroaromatic compounds” (Anadys Pharmaceuticals, Inc., priority 2003, dated 2007).

test system: Escherichia coli (ATCC25922) or Staphylococcus aureus (ATCC25923); assay: Antibacterial MIC, microdilution method in Mueller-Hinton medium; type: cell-based; settings: Escherichia coli, 18 h, MIC in E. coli or S. aureus; two-fold serial dilutions 64 to 0.5 μg/ml in duplicate; 18 hours of incubation at 35° C.; read-out: Potency (MIC)
Method: The antibacterial activity of the Formula I compounds was evaluated against standard bacterial strains by determining the minimal inhibitory concentration (MIC) to block growth. Each drug was assayed by the microdilution method in Mueller-Hinton medium, as recommended by the National Committee for Clinical Laboratory Standards. Approved Standard M7-A5: Methods for Dilution Antimicrobial Susceptibility Tests for Bacteria That Grow Aerobically 5th Ed. (National Committee for Clinical Laboratory Standards, Wayne, Pa., 2000). The tested bacterial strains included Escherichia coli (American Type Collection ATCC25922), Staphylococcus aureus (ATCC25923), and Pseudomonas aeruginosa (ATCC27853). Two-fold serial dilutions of each compound ranging from 64 to 0.5 μg/ml were tested in duplicate. The MIC was determined as the lowest concentration of each compound that prevented bacterial growth after 18 hours of incubation at 35° C. […] The mass of each compound in the Table was confirmed by LC-MS.

Row | MIC [µg/mL] | SMILES
1 | < 64 | Cl.NS(=O)(=O)c1ccc(NC(=O)CC(=O)c2ccc(Nc3nc(N4CCCCC4)nc(N4CCCCC4)n3)cc2)cc1 [N-{4-[2-(4-sulfamoyl-phenylcarbamoyl)-acetyl]-phenyl}-44,6-Bis-((3R,5S)-3,5-diamino-piperidin-1-yl)-[1,3,5]triazine-2-amine]
2 | < 16 | Cl.O=C(Nc1ccc(Nc2nc(N3CCCCC3)nc(N3CCCCC3)n2)cc1Cl)c1ccc(C(F)(F)F)nc1O [N-{3-chlorro-4-[(2-hydroxy-6-trifluoromethyl-pyridine-3-carbonyl)-amino]-phenyl}-4,6-Bis-((3R,5S)-3,5-diamino-piperidin-1-yl)-[1,3,5]triazine-2-amine]
3 | > 64 | Cl.NC(=O)[C@H](CO)Nc1nc(N2C[C@H](N)C[C@H](N)C2)nc(N2C[C@H](N)C[C@H](N)C2)n1 [(S)-2-[4-((3R,5S)-3,5-Diamino-piperidin-1-yl)-6-((3S,5R)-3,5-diamino-piperidin-1-yl)-[1,3,5]triazin-2-ylamino]-3-hydroxy-propionamide]
4 | > 64 | Cc1cc(Br)ccc1Nc1nc(N2CCCCC2)nc(N2CCCCC2)n1.Cl [4-[4,6-Bis-((3R,5S)-3,5-diamino-piperidin-1-yl)-[1,3,5]triazin-2-ylammino]-benzoic acid methyl ester]
5 | > 64 | Cl.c1ccc(Nc2ccccc2Nc2nc(C3CCCCC3)nc(N3CCCCC3)n2)cc1 [N-(2-pohenylamino-phenyl)-4,6-Bis-((3R,5S)-3,5-diamino-piperidin-1-yl)-[1,3,5]triazine-2-amine]
6 | > 64 | O=S(=O)(Nc1ccc2cn[nH]c2c1)c1ccc(Nc2nc(N3CCCCC3)nc(N3CCNCC3)n2)cc1 [4-[4-((3S,5R)-3,5-Diamino-piperidin-1-yl)-6-piperazin-1-yl[1,3,5,-triazin-2-ylamino]-N-(1H-indazol-6-yl)-benzenesulfonamide]
7 | > 64 | C=CCOC1OC(CO)C(O)C(O)C1Nc1nc(N2C[C@H](N)C[C@H](N)C2)nc(N2C[C@H](N)C[C@H](N)C2)n1.Cl (stereo partly drawn) [N-(2-allyloxy-4,5-dihydroxy-6-hydroxymethyl-tetrahydro-pyran-3-yl)-4,6-Bis-((3R,5S)-3,5-diamino-piperidin-1-yl)-[1,3,5]triazine-2-amine]
8 | < 16 | Cl.N[C@@H]1CC(c2nc(Nc3ccc(C(=O)CC(=O)Nc4ccccc4N4CCOCC4)cc3)nc(N3C[C@H](N)C[C@H](N)C3)n2)C[C@H](N)C1 (stereo partly drawn) [N-{4-[2-(2-morpholin-4-yl-phenylcarbamoyl)-acetyl]-phenytl}-4,6-Bis-((3R,5S)-3,5-diamino-piperidin-1-yl)-[1,3,5]triazine-2-ammine]
9 | < 64 | Cl.N[C@@H]1C[C@H](N)CN(c2nc(Nc3ccc4[nH]cnc4c3)nc(N3C[C@H](N)C[C@H](N)C3)n2)C1 [N-(1H-benzoimidazol-5-yl)-4,6-Bis-((3R,5S)-3,5-diamino-piperidin-1-yl)-[1,3,5]triazine-2-amine]

same assay, conditions: Escherichia coli, 18 h, read-out: Potency (MIC)

Row | SMILES | MIC [µg/mL]
10 | N[C@@H]1C[C@H](N)CN(c2nc(Nc3ccc(S(=O)(=O)Nc4ccc5cn[nH]c5c4)cc3)nc(N3C[C@@H](N)C[C@H]3CO)n2)C1 [4-[4-((2S,4S)-4-Amino-2-hydroxymethyl-pyrrolidin-1-yl)-6-((3R,5S)-3,5-diamino-piperidin-1-yl)-[1,3,5]triazin-2-ylamino]-N-(1H-indazol-6-yl)-benzenesulfonamide] | > 64
11 | NC[C@@H]1C[C@@H](O)CN1c1nc(Nc2ccc(C(=O)CC(=O)Nc3ccc4c(c3)OC(F)(F)O4)cc2)nc(N2C[C@H](N)C[C@H](N)C2)n1 [3-{4-[4-((2S,4R)-2-Aminomethyl-4-hydroxy-pyrrolidin-1-yl)-6-((3R,5S)-3,5-diamino-piperidin-1-yl)-[1,3,5]triazin-2-ylamino]-phenyl}-N-(2,2-difluoro-benzo[1,3]dioxol-5-yl)-3-oxo-propionamide] | < 16
12 | Cc1ccc(S(=O)(=O)N(Cc2ccccc2)c2ccc(Nc3nc(NC4CCCNC4)nc(N4C[C@H](N)C[C@H](N)C4)n3)cc2O)cc1 (stereo partly drawn) [N-Benzyl-N-{4-[4-((3R,5S)-3,5-diamino-piperidin-1-yl)-6-(piperidin-3-ylamino)-[1,3,5]triazin-2-ylamino]-2-hydroxy-phenyl}-4-methyl-benzenesulfonamide] | < 64
13 | Cc1cc(=O)oc2cc(Nc3nc(N4C[C@H](N)C[C@H](N)C4)nc(N4C[C@H](O)C[C@@H](O)C4)n3)ccc12 [7-[4-((3R,5S)-3,5-Diamino-piperidin-1-yl)-6-((3R,5R)-3,5-dihydroxy-piperidin-1-yl)-[1,3,5]triazin-2-ylamino]-4-methyl-chromen-2-one] | > 64
14 | N[C@@H]1C[C@H](N)CN(c2nc(Nc3ccc([N+](=O)[O-])c(Cl)c3)nc(N3C[C@H](N)C[C@H](N)C3)n2)C1 [N-(3-chloro-4-nitro-phenyl)-4,6-Bis-((3R,5S)-3,5-diamino-piperidin-1-yl)-[1,3,5]triazine-2-amine] | < 16
15 | N[C@@H]1C[C@H](N)CN(c2nc(Nc3ccc(NC(=O)c4c(O)ccc5ccccc45)c(O)c3)nc(N3C[C@H](N)C[C@H](N)C3)n2)C1 [N-{3-hydroxy-4-[(2-hydroxy-naphthalene-1-carbonyl)-amino]-phenyl}-4,6-Bis-((3R,5S)-3,5-diamino-piperidin-1-yl)-[1,3,5]triazine-2-amine] | < 16
16 | Cc1noc(NS(=O)(=O)c2ccc(Nc3nc(N4C[C@H](N)C[C@H](N)C4)nc(N4C[C@H](N)C[C@H](N)C4)n3)cc2)c1C [N-[4-(3,4-dimethyl-isoxazol-5-ylsulfamoyl)-phenyl]-4,6-Bis-((3R,5S)-3,5-diamino-piperidin-1-yl)-[1,3,5]triazine-2-amine] | > 64
17 | N[C@@H]1C[C@H](N)CN(c2nc(Nc3ccc(NC(=O)c4ccc5cccnc5c4O)cc3)nc(N3C[C@H](N)C[C@H](N)C3)n2)C1 [N-{4-[(8-hydroxy-quinoline-7-carbonyl)-amino]-phenyl}-4,6-Bis-((3R,5S)-3,5-diamino-piperidin-1-yl)-[1,3,5]triazine-2-amine] | < 16
18 | N[C@@H]1C[C@H](N)CN(c2nc(Nc3ccc(NC(=O)c4cccc(O)c4O)c(O)c3)nc(N3C[C@H](N)C[C@H](N)C3)n2)C1 [N-[4-(2,3-dihydroxy-benzoylamino)-3-hydroxy-phenyl]-4,6-Bis-((3R,5S)-3,5-diamino-piperidin-1-yl)-[1,3,5]triazine-2-amine] | < 16
19 | N[C@@H]1C[C@H](N)CN(c2nc(NNc3ccccc3)nc(N3C[C@H](N)C[C@H](N)C3)n2)C1 [N-(4,6-Bis-((3R,5S)-3,5-diamino-piperidin-1-yl)-[1,3,5]triazin-2-yl)-N′-Phenyl-hydrazine] | > 64
20 | Cc1ccc(S(=O)(=O)N(Cc2ccccc2)c2ccc(Nc3nc(N4C[C@H](N)C[C@H](N)C4)nc(N4C[C@H](CN)C[C@H](CN)C4)n3)c(O)c2)cc1 [N-Benzyl-N-{4-[4-((3S,5R)-3,5-bis-(aminomethyl)-piperidin-1-yl)-6-((3R,5S)-3,5-diamino-piperidin-1-yl)-[1,3,5]triazin-2-ylamino]-3-hydroxy-phenyl}-4-methyl-benzenesulfonamide] | < 64
21 | N[C@@H]1C[C@H](N)CN(c2nc(Nc3nc4ccc([N+](=O)[O-])cc4s3)nc(N3C[C@H](N)C[C@H](N)C3)n2)C1 [N-(6-nitro-benzothiazol-2-yl)-4,6-Bis-((3R,5S)-3,5-diamino-piperidin-1-yl)-[1,3,5]triazine-2-amine] | < 16
22 | NC[C@@H]1CN(c2nc(Nc3ccc4c(c3)-c3ccccc3C4=O)nc(N3C[C@H](N)C[C@H](N)C3)n2)CC[C@@H]1O [3-[4-((3R,4S)-3-Aminomethyl-4-hydroxy-piperidin-1-yl)-6-((3R,5S)-3,5-diamino-piperidin-1-yl)-[1,3,5]triazin-2-ylamino]-fluoren-9-one] | > 64
23 | NC[C@@H]1C[C@H](CN)CN(c2nc(Nc3ccc(C(=O)CC(=O)Nc4ccccc4Cl)cc3)nc(N3C[C@H](N)C[C@H](N)C3)n2)C1 [3-{4-[4-((3R,5S)-3,5-Bis-(aminomethyl)-piperidin-1-yl)-6-((3R,5S)-3,5-diamino-piperidin-1-yl)-[1,3,5]triazin-2-ylamino]-phenyl}-N-(2-chloro-phenyl)-3-oxo-propionamide] | < 64
24 | N[C@@H]1C[C@H](N)CN(c2nc(Nc3ccc(NC(=O)c4ccc(F)c(F)c4O)cc3)nc(N3C[C@H](N)C[C@H](N)C3)n2)C1 [N-[4-(3,4-difluoro-2-hydroxy-benzoylamino)-phenyl]-4,6-Bis-((3R,5S)-3,5-diamino-piperidin-1-yl)-[1,3,5]triazine-2-amine] | < 64

same assay, conditions: MIC in E. coli or S. aureus; two-fold serial dilutions 64 to 0.5 μg/ml in duplicate; 18 hours of incubation at 35° C.

Row | SMILES | Potency (MIC)
25 | NC[C@@H]1CN(c2nc(Nc3ccc(S(=O)(=O)Nc4ccc5cn[nH]c5c4)cc3)nc(N3C[C@H](N)C[C@H](N)C3)n2)CC[C@@H]1O [4-[4-((3R,4S)-3-Aminomethyl-4-hydroxy-piperidin-1-yl)-6-((3RE,5S)-3,5-diamino-piperidin-1-yl)-[1,3,5]triazin-2-ylamino]-N-(1H-indazol-6-yl)-benzenesulfonamide] | − (− means MIC>64 μg/ml in E. coli or S. aureus)
26 | NC[C@@H]1C[C@@H](O)CN1c1nc(Nc2ccc(C(=O)CC(=O)Nc3ccc(SC(F)(F)F)cc3)cc2)nc(N2C[C@H](N)C[C@H](N)C2)n1 [3-{4-[4-((2S,4RE)-2-Aminomethyl-4-hydroxy-pyrrolidin-1-yl)-6-((3R,5S)-3,5-diamino-piperidin-1-yl)-[1,3,5]triazin-2-ylamino]-phenyl}-3-oxo-N-(4-trifluoromethylsulfanyl-phenyl)-propionamide] | ++ (++ means MIC<16 μg/ml in E. coli or S. aureus)
